Test results: the NIST ThermoML archive (doi:10.1016/j.jct.2012.12.001)
“And” between values parts separate entries of the source, which are not always exact repeats. Equal entries are not always repeated.

Assay: heat capacity at constant pressure per volume; xn = mol fraction of the nth substance listed
Settings: 101 kPa, Liquid, DSC, x2 = 0.695

CCCCCCCCCCCCCCCCC [heptadecane] + N#Cc1ccccc1
Settings | heat capacity
319 K | 1720700 J/K/m3
319.1 K | 1720600 J/K/m3
319.2 K | 1720500 J/K/m3
319.3 K | 1720600 J/K/m3
319.5 K | 1721300 J/K/m3
319.6 K | 1721200 J/K/m3
319.7 K | 1720900 J/K/m3
319.8 K | 1720700 J/K/m3
319.9 K | 1720500 J/K/m3
320 K | 1720400 J/K/m3
320.1 K | 1720500 J/K/m3
320.2 K | 1720300 J/K/m3
320.3 K | 1720800 J/K/m3
320.4 K | 1720700 J/K/m3
320.5 K | 1720400 J/K/m3
320.61 K | 1720200 J/K/m3
320.7 K | 1720000 J/K/m3
320.8 K | 1720000 J/K/m3
320.9 K | 1719900 J/K/m3
321 K | 1720300 J/K/m3
321.1 K | 1720600 J/K/m3
321.2 K | 1720600 J/K/m3
321.3 K | 1720600 J/K/m3
321.4 K | 1720400 J/K/m3
321.5 K | 1720000 J/K/m3
321.61 K | 1719900 J/K/m3
321.7 K | 1720100 J/K/m3
321.8 K | 1720100 J/K/m3
321.89 K | 1720400 J/K/m3
322 K | 1720500 J/K/m3
322.1 K | 1720500 J/K/m3
322.2 K | 1720100 J/K/m3
322.3 K | 1720100 J/K/m3
322.4 K | 1720300 J/K/m3
322.5 K | 1720600 J/K/m3
322.6 K | 1720600 J/K/m3
322.7 K | 1720800 J/K/m3
322.81 K | 1721200 J/K/m3
322.9 K | 1720800 J/K/m3
323 K | 1720200 J/K/m3
323.11 K | 1720200 J/K/m3
323.2 K | 1720100 J/K/m3
323.3 K | 1720100 J/K/m3
323.4 K | 1720200 J/K/m3
323.5 K | 1720700 J/K/m3
323.6 K | 1720800 J/K/m3
323.7 K | 1720800 J/K/m3
323.8 K | 1720500 J/K/m3
323.9 K | 1720400 J/K/m3
324 K | 1720200 J/K/m3
324.1 K | 1720200 J/K/m3
324.2 K | 1720200 J/K/m3
324.3 K | 1720300 J/K/m3
324.4 K | 1720500 J/K/m3
324.5 K | 1720500 J/K/m3
324.6 K | 1720500 J/K/m3
324.7 K | 1720600 J/K/m3
324.8 K | 1720600 J/K/m3
324.9 K | 1720400 J/K/m3
325 K | 1720700 J/K/m3
325.1 K | 1720700 J/K/m3
325.2 K | 1720400 J/K/m3
325.3 K | 1719500 J/K/m3
325.4 K | 1720300 J/K/m3
325.5 K | 1720500 J/K/m3
325.6 K | 1720300 J/K/m3
325.7 K | 1720400 J/K/m3
325.8 K | 1720200 J/K/m3
325.9 K | 1720200 J/K/m3
326 K | 1720600 J/K/m3
326.1 K | 1720900 J/K/m3
326.2 K | 1720900 J/K/m3
326.3 K | 1720900 J/K/m3
326.4 K | 1720400 J/K/m3
326.5 K | 1720200 J/K/m3
326.6 K | 1720300 J/K/m3
326.7 K | 1720400 J/K/m3
326.8 K | 1720400 J/K/m3
326.9 K | 1720700 J/K/m3
327 K | 1721000 J/K/m3
327.1 K | 1721000 J/K/m3
327.2 K | 1721100 J/K/m3
327.3 K | 1720800 J/K/m3
327.41 K | 1720500 J/K/m3
327.5 K | 1720400 J/K/m3
327.6 K | 1720500 J/K/m3
327.7 K | 1721000 J/K/m3
327.8 K | 1721200 J/K/m3
327.9 K | 1720800 J/K/m3
328 K | 1720800 J/K/m3
328.1 K | 1720800 J/K/m3
328.2 K | 1720900 J/K/m3
328.3 K | 1720700 J/K/m3
328.4 K | 1720800 J/K/m3
328.5 K | 1721000 J/K/m3
328.6 K | 1721500 J/K/m3
328.7 K | 1721400 J/K/m3
328.8 K | 1721200 J/K/m3
328.9 K | 1721300 J/K/m3
329 K | 1720900 J/K/m3
329.1 K | 1720900 J/K/m3
329.2 K | 1720800 J/K/m3
329.3 K | 1720700 J/K/m3
329.4 K | 1721000 J/K/m3
329.5 K | 1721100 J/K/m3
329.61 K | 1721300 J/K/m3
329.7 K | 1721300 J/K/m3
329.8 K | 1721400 J/K/m3
329.9 K | 1721400 J/K/m3
330 K | 1721300 J/K/m3
330.1 K | 1722000 J/K/m3
330.2 K | 1722500 J/K/m3
330.3 K | 1722400 J/K/m3
330.4 K | 1722100 J/K/m3
330.5 K | 1721600 J/K/m3
330.61 K | 1721600 J/K/m3
330.7 K | 1721300 J/K/m3
330.8 K | 1721300 J/K/m3
330.9 K | 1721300 J/K/m3
331 K | 1721500 J/K/m3
331.1 K | 1721700 J/K/m3
331.2 K | 1721500 J/K/m3
331.3 K | 1721200 J/K/m3
331.4 K | 1721400 J/K/m3
331.5 K | 1721300 J/K/m3
331.6 K | 1721300 J/K/m3
331.7 K | 1721500 J/K/m3
331.81 K | 1721700 J/K/m3
331.9 K | 1722000 J/K/m3
332 K | 1722000 J/K/m3
332.1 K | 1721900 J/K/m3
332.2 K | 1722100 J/K/m3
332.3 K | 1722100 J/K/m3
332.4 K | 1722000 J/K/m3
332.5 K | 1722000 J/K/m3
332.6 K | 1722200 J/K/m3
332.7 K | 1722600 J/K/m3
332.8 K | 1722700 J/K/m3
332.9 K | 1722700 J/K/m3
333 K | 1722600 J/K/m3
333.1 K | 1722200 J/K/m3
333.2 K | 1721900 J/K/m3
333.31 K | 1721900 J/K/m3
333.4 K | 1722000 J/K/m3
333.5 K | 1722000 J/K/m3
333.6 K | 1722200 J/K/m3
333.7 K | 1722700 J/K/m3
333.8 K | 1722800 J/K/m3
333.9 K | 1722600 J/K/m3
334 K | 1722600 J/K/m3
334.1 K | 1722700 J/K/m3
334.2 K | 1722600 J/K/m3
334.3 K | 1722900 J/K/m3
334.4 K | 1723400 J/K/m3
334.5 K | 1723900 J/K/m3
334.6 K | 1723800 J/K/m3
334.7 K | 1723400 J/K/m3
334.8 K | 1723000 J/K/m3
334.9 K | 1722900 J/K/m3
335 K | 1723100 J/K/m3
335.1 K | 1723300 J/K/m3
335.2 K | 1723600 J/K/m3
335.3 K | 1723700 J/K/m3
335.4 K | 1723700 J/K/m3
335.5 K | 1723700 J/K/m3
335.6 K | 1723600 J/K/m3
335.7 K | 1723500 J/K/m3
335.8 K | 1723300 J/K/m3
335.9 K | 1723400 J/K/m3
336 K | 1723600 J/K/m3
336.1 K | 1723400 J/K/m3
336.2 K | 1723600 J/K/m3
336.3 K | 1723200 J/K/m3
336.4 K | 1723100 J/K/m3
336.5 K | 1723300 J/K/m3
336.6 K | 1723400 J/K/m3
336.7 K | 1723700 J/K/m3
336.8 K | 1724100 J/K/m3
336.9 K | 1724400 J/K/m3
337 K | 1724100 J/K/m3
337.1 K | 1724200 J/K/m3
337.18 K | 1724100 J/K/m3
337.32 K | 1723700 J/K/m3
337.43 K | 1723700 J/K/m3
337.52 K | 1724100 J/K/m3
337.6 K | 1724300 J/K/m3
337.73 K | 1724500 J/K/m3
337.8 K | 1724400 J/K/m3
337.9 K | 1724900 J/K/m3
338 K | 1724800 J/K/m3
338.01 K | 1724800 J/K/m3
338.02 K | 1724900 J/K/m3
338.03 K | 1724900 J/K/m3
338.45 K | 1724800 J/K/m3 and 1724900 J/K/m3
338.53 K | 1725300 J/K/m3
338.58 K | 1725400 J/K/m3
338.59 K | 1725200 J/K/m3
338.6 K | 1725300 J/K/m3
338.62 K | 1725200 J/K/m3
339 K | 1724600 J/K/m3 and 1724700 J/K/m3
339.01 K | 1724600 J/K/m3 and 1724500 J/K/m3
339.1 K | 1724700 J/K/m3 and 1724600 J/K/m3
339.11 K | 1724700 J/K/m3 and 1724800 J/K/m3
339.13 K | 1724700 J/K/m3
339.2 K | 1725100 J/K/m3
